Data as given in paper PMC8279416, “Structural Fine-Tuning of Desmuramylpeptide NOD2 Agonists Defines Their In Vivo Adjuvant Activity” (Journal of Medicinal Chemistry, 2021).
Values joined by “and” are separate entries in the source; they are usually repeats but may differ in a detail not shown here. Identical values can stand only once.

Molecular target: T1, NOD2 (Homo sapiens, UniProt Q9HC29)
T1 construct: host or cells: HEK-Blue NOD2 cells (HEK293-derived)
Experiment: HEK-Blue NOD2 cell line reporter assay (NF-κB-inducible SEAP)
Type: cell-based
Settings: for EC50 / NOD2 activity at 2 μM (fold increase) / NOD2 activation (in words): HEK-Blue NOD2 cells; for NOD2 activity at 2 μM (fold increase): NF-κB transcriptional (SEAP) activity relative to 0.1% DMSO; for Decrease of NOD2 agonistic activity/potency by a factor, relative to 1: ratio of EC50 versus compound 1; for NOD2 activation (in words): compound alone
Description: To determine the NOD2 agonistic potential of the synthesized desmuramylpeptides at the cellular level, we used the validated and commercially available HEK-Blue NOD2 cell line reporter assay. HEK-Blue NOD2 cells were first treated for 18 h with MDP, 1, or the novel desmuramylpeptides at 2 μM. The NF-κB transcriptional activity measured was normalized to that of the vehicle treated (0.1% DMSO) control HEK-Blue NOD2 cells.
HEK-Blue NOD2 and NOD1 cell line reporter assays are derived from HEK293 cells by cotransfection of the hNOD2 or hNOD1 genes, respectively, and an NF-κB-inducible secreted embryonic alkaline phosphatase (SEAP) reporter gene. Following activation of NOD2 or NOD1, the resulting NF-κB induces production of SEAP, the levels of which can be quantified colorimetrically. […] After 18 h of incubation (37 °C, 5% CO2), secreted embryonic alkaline phosphatase (SEAP) activity was determined spectrophotometrically as absorbance at 630 nm (BioTek Synergy microplate reader; Winooski, VT, U.S.A.). EC50 values were calculated using Prism software (version 9; GraphPad Software, CA, U.S.A.). For determination of specificity, HEK-Blue NOD2 cells (2.5 × 10^5 cells/mL) were first pretreated for 1 h with a 10 μM NOD2 antagonist, before the addition of the compounds (2 μM), with incubation for 18 h. SEAP activity in the supernatants was determined as above. The experiments were run in duplicate and repeated as at least two independent biological replicates.

[1] = 18 h, 7 or 8 concentrations 1 nM to 20 μM, mean ± SEM

T1 sequence (Q9HC29 whole entry): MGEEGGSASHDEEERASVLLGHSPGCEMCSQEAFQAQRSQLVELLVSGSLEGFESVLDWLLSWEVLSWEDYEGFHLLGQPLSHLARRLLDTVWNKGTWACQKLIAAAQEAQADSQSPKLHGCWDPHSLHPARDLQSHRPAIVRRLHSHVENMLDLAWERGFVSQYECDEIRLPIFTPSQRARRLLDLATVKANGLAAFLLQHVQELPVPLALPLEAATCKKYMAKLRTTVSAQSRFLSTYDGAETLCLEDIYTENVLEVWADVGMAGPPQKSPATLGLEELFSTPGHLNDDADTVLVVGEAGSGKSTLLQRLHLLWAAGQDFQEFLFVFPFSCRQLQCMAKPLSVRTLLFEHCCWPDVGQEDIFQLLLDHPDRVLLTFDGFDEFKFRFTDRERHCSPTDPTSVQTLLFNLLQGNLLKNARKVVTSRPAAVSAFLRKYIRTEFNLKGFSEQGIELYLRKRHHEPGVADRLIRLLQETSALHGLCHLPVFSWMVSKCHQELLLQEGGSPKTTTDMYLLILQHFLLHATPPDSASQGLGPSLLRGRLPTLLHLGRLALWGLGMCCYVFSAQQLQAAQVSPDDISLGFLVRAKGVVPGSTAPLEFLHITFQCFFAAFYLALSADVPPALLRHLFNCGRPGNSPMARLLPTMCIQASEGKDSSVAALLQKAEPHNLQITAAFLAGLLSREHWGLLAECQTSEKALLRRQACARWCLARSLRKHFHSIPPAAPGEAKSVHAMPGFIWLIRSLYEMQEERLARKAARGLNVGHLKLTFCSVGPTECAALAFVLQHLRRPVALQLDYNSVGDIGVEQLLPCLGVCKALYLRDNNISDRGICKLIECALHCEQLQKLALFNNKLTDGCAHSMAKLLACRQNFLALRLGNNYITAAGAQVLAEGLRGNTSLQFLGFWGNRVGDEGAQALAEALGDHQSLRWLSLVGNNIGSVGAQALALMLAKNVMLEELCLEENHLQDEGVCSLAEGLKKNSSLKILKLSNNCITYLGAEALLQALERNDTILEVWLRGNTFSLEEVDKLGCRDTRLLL

Structure (SMILES)	EC50	NOD2 activity at 2 μM (fold increase) (18 h, mean ± SEM)	EC50 [1]	Decrease of NOD2 agonistic activity/potency by a factor, relative to 1	Improved potency over 20 (ratio of EC50 versus compound 20)	NOD2 activation (in words)
CCOC(=O)CC[C@@H](NC(=O)[C@@H](NC(=O)CNC(=O)CCc1ccc(O)c(OC)c1)C(C)C)C(=O)OCC [Compound 18, Diethyl (3-(4-Hydroxy-3-methoxyphenyl)propanoyl)glycyl-L-valyl-D-glutamate]	6.16 µM	1.97 ± 0.05 fold increase	6.16 ± 0.842 µM	70		
CCOC(=O)CC[C@@H](NC(=O)[C@@H](NC(=O)CNC(=O)CCCc1ccc(O)c(OC)c1)C(C)C)C(=O)OCC [Compound 19, Diethyl (4-(4-Hydroxy-3-methoxyphenyl)butanoyl)glycyl-L-valyl-D-glutamate]		1.73 ± 0.01 fold increase	13.9 ± 0.8 µM	156		
CCOC(=O)CC[C@@H](NC(=O)[C@@H](NC(=O)CNC(=O)/C=C/c1ccc(OC)c(OC)c1)C(C)C)C(=O)OCC [Compound 20, Diethyl ((E)-3-(3,4-Dimethoxyphenyl)acryloyl)glycyl-L-valyl-D-glutamate]		2.64 ± 0.01 fold increase	0.763 ± 0.088 µM			
CCOC(=O)CC[C@@H](NC(=O)[C@@H](NC(=O)CNC(=O)/C=C/c1ccc(N)cc1)C(C)C)C(=O)OCC [Compound 24, Diethyl ((E)-3-(4-Aminophenyl)acryloyl)glycyl-L-valyl-D-glutamate]		2.45 ± 0.18 fold increase	0.542 ± 0.048 µM			
CCOC(=O)CC[C@@H](NC(=O)[C@@H](NC(=O)CNC(=O)/C=C/c1ccc(C(C)C)cc1)C(C)C)C(=O)OCC [Compound 25, Diethyl ((E)-3-(4-Isopropylphenyl)acryloyl)glycyl-L-valyl-D-glutamate]		2.83 ± 0.06 fold increase	0.071 ± 0.004 µM			
CCOC(=O)CC[C@@H](NC(=O)[C@@H](NC(=O)CNC(=O)/C=C/c1ccc([N+](=O)[O-])cc1)C(C)C)C(=O)OCC [Compound 26, Diethyl ((E)-3-(4-Nitrophenyl)acryloyl)glycyl-L-valyl-D-glutamate]		3.02 ± 0.07 fold increase	0.049 ± 0.004 µM			
CCOC(=O)CC[C@@H](NC(=O)[C@@H](NC(=O)CNC(=O)C1CC1c1ccc(OC)c(OC)c1)C(C)C)C(=O)OCC (stereo partly drawn) [Compound 27, Diethyl (2-(3,4-Dimethoxyphenyl)cyclopropane-1-carbonyl)glycyl-L-valyl-D-glutamate]		2.63 ± 0.15 fold increase	0.322 ± 0.007 µM		2.4 fold	
CCOC(=O)CC[C@@H](NC(=O)[C@@H](NC(=O)CNC(=O)C1CC1c1ccc(O)c(OC)c1)C(C)C)C(=O)OCC (stereo partly drawn) [Compound 28, Diethyl (2-(4-Hydroxy-3-methoxyphenyl)cyclopropane-1-carbonyl)glycyl-L-valyl-D-glutamate]		2.66 ± 0.07 fold increase	0.369 ± 0.004 µM	4		
CCOC(=O)CC[C@@H](NC(=O)[C@@H](NC(=O)CNC(=O)C1CC1c1ccc(F)c(F)c1)C(C)C)C(=O)OCC (stereo partly shown) [Compound 29]		2.63 ± 0.10 fold increase	0.049 ± 0.003 µM			
CCOC(=O)CC[C@@H](NC(=O)[C@@H](NC(=O)CNC(=O)[C@H]1C[C@@H]1c1ccc(F)c(F)c1)C(C)C)C(=O)OCC [Compound 29a]		2.46 ± 0.12 fold increase	0.066 ± 0.005 µM			
CCOC(=O)CC[C@@H](NC(=O)[C@@H](NC(=O)CNC(=O)[C@@H]1C[C@H]1c1ccc(F)c(F)c1)C(C)C)C(=O)OCC [Compound 29b]		2.71 ± 0.05 fold increase	0.039 ± 0.001 µM			
CCOC(=O)CC[C@@H](NC(=O)[C@H](COCc1ccccc1)NC(=O)CNC(=O)/C=C/c1ccc(O)c(OC)c1)C(=O)OCC [Compound 30, Diethyl O-Benzyl-N-(((E)-3-(4-hydroxy-3-methoxyphenyl)acryloyl)glycyl)-L-seryl-D-glutamate]	5.56 µM	2.04 fold increase and 2.04 ± 0.02 fold increase	5.56 ± 1.47 µM			
CCOC(=O)CC[C@@H](NC(=O)[C@H](CO)NC(=O)CNC(=O)/C=C/c1ccc(O)c(OC)c1)C(=O)OCC [Compound 31, Diethyl ((E)-3-(4-Hydroxy-3-methoxyphenyl)acryloyl)glycyl-L-seryl-D-glutamate]		1.21 fold increase and 1.21 ± 0.08 fold increase	> 20 µM			
CCOC(=O)CC[C@@H](NC(=O)[C@@H](NC(=O)CNC(=O)/C=C/c1ccc(O)c(OC)c1)[C@@H](C)O)C(=O)OCC [Compound 32, Diethyl ((E)-3-(4-Hydroxy-3-methoxyphenyl)acryloyl)glycyl-L-threonyl-D-glutamate]		1.54 ± 0.02 fold increase	12.5 ± 1.22 µM			
CCOC(=O)[C@@H](CCC(=O)N[C@@H](CCCCN)C(=O)OC)NC(=O)[C@@H](NC(=O)CNC(=O)/C=C/c1ccc(O)c(OC)c1)C(C)C [Compound 41, Methyl ((R)-5-Ethoxy-4-((S)-2-(2-((E)-3-(4-hydroxy-3-methoxyphenyl)acrylamido)acetamido)-3-methylbutanamido)-5-oxopentanoyl)-L-lysinate]	10.2 µM	1.86 ± 0.02 fold increase	10.2 ± 2.62 µM			
COc1cc(/C=C/C(=O)NCC(=O)N[C@H](C(=O)N[C@H](CCC(=O)OC(C)(C)C)C(=O)OC(C)(C)C)C(C)C)ccc1O [Compound 56, Di-tert-butyl ((E)-3-(4-Hydroxy-3-methoxyphenyl)acryloyl)glycyl-L-valyl-D-glutamate]		1.20 ± 0.10 fold increase				markedly reduced NOD2 activation
CCNC(=O)CC[C@@H](NC(=O)[C@@H](NC(=O)CNC(=O)/C=C/c1ccc(O)c(OC)c1)C(C)C)C(=O)NCC [Compound 57, (R)-N^1,N^5-Diethyl-2-((S)-2-(2-((E)-3-(4-hydroxy-3-methoxyphenyl)acrylamido)acetamido)-3-methylbutanamido)pentanediamide]		1.45 ± 0.05 fold increase				substantially diminished activity
CCCCNC(=O)CC[C@@H](NC(=O)[C@@H](NC(=O)CNC(=O)/C=C/c1ccc(O)c(OC)c1)C(C)C)C(=O)NCCCC [Compound 58, (R)-N^1,N^5-Dibutyl-2-((S)-2-(2-((E)-3-(4-hydroxy-3-methoxyphenyl)acrylamido)acetamido)-3-methylbutanamido)pentanediamide]		1.30 ± 0.03 fold increase				
CCCCNC(=O)CC[C@@H](NC(=O)[C@@H](NC(=O)CNC(=O)/C=C/c1ccc(O)c(OC)c1)C(C)C)C(=O)OC(C)(C)C [Compound 59, tert-Butyl N^5-Butyl-N^2-((E)-3-(4-hydroxy-3-methoxyphenyl)acryloyl)glycyl-L-valyl-D-glutaminate]		1.32 ± 0.05 fold increase				
